Laboratory results taken from patent US10233183B1, “13-hydroxysparteine cinnamic acid derivatives with anti-tumor activities and a method of preparing the same” (SHAANXI UNIVERSITY OF SCIENCE AND TECHNOLOGY, priority 2018, dated 2019).

Assays:
Type in all cases: cell-based
[1] = system: human gastric adenocarcinoma cells (AGS); experiment: MTT tumor cell proliferation inhibition test, AGS; details: 48 hours treatment, read-out: Half Inhibitory Concentration IC50, AGS
Source text: (§1) The compounds of the present invention were subjected to tumor cell proliferation inhibition test, and conventional MTT method was used. Cell lines used: non-small cell lung cancer cells (H1975), human hepatoma cells (HepG2), human glioma cells (U251), human gastric adenocarcinoma cells (AGS), human breast cancer cells (1590). The culture medium was DMEM+15% NBS+double antibody. […] Antitumor cytarabine (Ara-C) was used as control solution, prepared under the same condition. Cell culture: adherent growth Tumor cells were cultured in 1640 medium containing 10% inactivated neonatal bovine serum and penicillin, streptomycin (1 million U/L), placed in carbon dioxide incubator at 37° C., 5% CO2, and saturated humidity. Cells were treated serially passaged 2-3 times. The first culture was washed with PBS 2 times, and digested with trypsin. Fresh culture medium was added evenly, cells were adjusted to a appropriate concentration and transferred into a new culture flask. Cell in an exponential phase were chosen for the tests. MTT Assay for Cell Viability and IC50 Determination: Experimental Principle: Living cells mitochondria in the dehydrogenase can reduce yellow MTT to water-insoluble blue-violet product MT (MTT formazan), deposited in the cells. The amount of production is proportional to the number of living cells. […] DMSO can dissolve blue violet crystals, and the color depth is proportional to the amount contained, so the absorbance measured by the microplate reader can reflect the cell viability. Methods: The exponential phase cells were digested and counted and seeded in 96-well plates at a density of 2×10^4/mL at 100 μl per well. […] After another 4 hours, the supernatant was discarded, and 100 μl of DMSO was added to each well. After mixing, the absorbance was measured at 570 nm using a microplate reader. An IC50 calculation software was used to determine the half inhibitory concentration (IC50).

[2] = system: human hepatoma cells (HepG2); experiment: MTT tumor cell proliferation inhibition test, HepG2; details: 48 hours treatment, read-out: Half Inhibitory Concentration IC50, HepG2
Source text: as §1

[3] = system: human breast cancer cells (1590); experiment: MTT tumor cell proliferation inhibition test, 1590; details: 48 hours treatment, 1590 cells, read-out: Half Inhibitory Concentration IC50, 1590
Source text: as §1

different cell lines = experiment: MTT tumor cell proliferation inhibition test, overall verdict; details: summary in words of Table 1, different cell lines
Source text: as §1

[4] = system: human glioma cells (U251); experiment: MTT tumor cell proliferation inhibition test, U251; details: U-251, 48 hours treatment, read-out: Half Inhibitory Concentration IC50, U251
Source text: as §1

[5] = system: non-small cell lung cancer cells (H1975); experiment: MTT tumor cell proliferation inhibition test, H1975; details: Homo sapiens, NCI-H1975, 48 hours treatment, read-out: Half Inhibitory Concentration IC50, H1975
Source text: as §1

COc1cc(/C=C\C(=O)OC2CCN3[C@@H]4C[C@@H](C[C@@H]3C2)N2CCCC[C@@H]2C4)cc(OC)c1O (stereo partly drawn) [Compound G, (Z)-(6S,7aR,13S,14aR)-tetradecahydro-6,13-methanodipyrido[1,2-a:1′,2′-e][1,5]diazocin-2-yl 3-(4-hydroxy-3,5-dimethoxyphenyl)acrylate]
IC50 [1]: 59.4 ± 0.97 µM | IC50 [2]: > 100 µM | IC50 [3]: > 100 µM | in vitro antitumor activities (different cell lines): good in vitro antitumor activities | IC50 [4]: 37 ± 1.24 µM | IC50 [5]: 55.48 ± 0.48 µM

COc1cc(/C=C\C(=O)OC2CCN3[C@@H]4C[C@@H](C[C@@H]3C2)N2CCCC[C@@H]2C4)ccc1O (stereo partly drawn) [Compound F, (Z)-(6S,7aR,13S,14aR)-tetradecahydro-6,13-methanodipyrido[1,2-a:1′,2′-e][1,5]diazocin-2-yl 3-(4-hydroxy-3-methoxyphenyl)acrylate]
IC50 [1]: > 100 µM | IC50 [2]: > 100 µM | IC50 [3]: 88.6 ± 2.12 µM | IC50 [4]: > 100 µM | IC50 [5]: > 100 µM

Cc1ccccc1/C=C\C(=O)OC1CCN2[C@@H]3C[C@@H](C[C@@H]2C1)N1CCCC[C@@H]1C3 (stereo partly drawn) [Compound K, (Z)-(6S,7aR,13S,14aR)-tetradecahydro-6,13-methanodipyrido[1,2-a:1′,2′-e][1,5]diazocin-2-yl 3-(o-tolyl)acrylate]
IC50 [1]: 69.81 ± 0.06 µM | IC50 [2]: > 100 µM | IC50 [3]: > 100 µM | IC50 [4]: > 100 µM | IC50 [5]: 89.6 ± 1.34 µM

Nc1ccn([C@@H]2O[C@H](CO)[C@@H](O)[C@@H]2O)c(=O)n1 [Ara-C, cytarabine, reference compound]
IC50 [1]: > 100 µM | IC50 [2]: 20.6 ± 0.54 µM | IC50 [3]: 76.3 ± 2.48 µM | IC50 [4]: 39.2 ± 0.54 µM | IC50 [5]: 19.2 ± 0.39 µM

Cc1cccc(/C=C\C(=O)OC2CCN3[C@@H]4C[C@@H](C[C@@H]3C2)N2CCCC[C@@H]2C4)c1 (stereo partly drawn) [Compound J, (Z)-(6S,7aR,13S,14aR)-tetradecahydro-6,13-methanodipyrido[1,2-a:1′,2′-e][1,5]diazocin-2-yl 3-(m-tolyl)acrylate]
IC50 [1]: > 100 µM | IC50 [2]: 88.5 ± 1.26 µM | IC50 [3]: 65.43 ± 0.47 µM | IC50 [4]: 74.6 ± 2.94 µM | IC50 [5]: 65 ± 1.89 µM

O=C(/C=C\c1ccc(O)c(O)c1)OC1CCN2[C@@H]3C[C@@H](C[C@@H]2C1)N1CCCC[C@@H]1C3 (stereo partly drawn) [Compound E, (Z)-(6S,7aR,13S,14aR)-tetradecahydro-6,13-methanodipyrido[1,2-a:1′,2′-e][1,5]diazocin-2-yl 3-(3,4-dihydroxyphenyl)acrylate]
IC50 [1]: > 100 µM | IC50 [2]: > 100 µM | IC50 [3]: 36.2 ± 1.98 µM | in vitro antitumor activities (different cell lines): good in vitro antitumor activities | IC50 [4]: 42.2 ± 0.88 µM | IC50 [5]: 43.1 ± 1.24 µM

O=C(/C=C\c1ccccc1)OC1CCN2[C@@H]3C[C@@H](C[C@@H]2C1)N1CCCC[C@@H]1C3 (stereo partly drawn) [Compound A, (Z)-(6S,7aR,13S,14aR)-tetradecahydro-6,13-methanodipyrido[1,2-a:1′,2′-e][1,5]diazocin-2-yl 3-phenylacrylate]
IC50 [1]: 20.3 ± 1.12 µM | IC50 [2]: 36.6 ± 3.01 µM | IC50 [3]: 32 ± 1.69 µM | in vitro antitumor activities (different cell lines): good in vitro antitumor activities | IC50 [4]: > 100 µM | IC50 [5]: 16.9 ± 1.36 µM

O=C(/C=C\c1ccc(O)cc1)OC1CCN2[C@@H]3C[C@@H](C[C@@H]2C1)N1CCCC[C@@H]1C3 (stereo partly drawn) [Compound B, (Z)-(6S,7aR,13S,14aR)-tetradecahydro-6,13-methanodipyrido[1,2-a:1′,2′-e][1,5]diazocin-2-yl 3-(4-hydroxyphenyl)acrylate]
IC50 [1]: > 100 µM | IC50 [2]: 53.69 ± 0.34 µM | IC50 [3]: > 100 µM | IC50 [4]: 74.98 ± 0.49 µM | IC50 [5]: > 100 µM

Cc1ccc(/C=C\C(=O)OC2CCN3[C@@H]4C[C@@H](C[C@@H]3C2)N2CCCC[C@@H]2C4)cc1 (stereo partly drawn) [Compound H, (Z)-(6S,7aR,13S,14aR)-tetradecahydro-6,13-methanodipyrido[1,2-a:1′,2′-e][1,5]diazocin-2-yl 3-(p-tolyl)acrylate]
IC50 [1]: 35.7 ± 2.58 µM | IC50 [2]: 51.1 ± 1.44 µM | IC50 [3]: > 100 µM | in vitro antitumor activities (different cell lines): good in vitro antitumor activities | IC50 [4]: 75.4 ± 0.897 µM | IC50 [5]: 29.9 ± 1.59 µM

Cc1cc(/C=C\C(=O)OC2CCN3[C@@H]4C[C@@H](C[C@@H]3C2)N2CCCC[C@@H]2C4)ccc1O (stereo partly drawn) [Compound I, (Z)-(6S,7aR,13S,14aR)-tetradecahydro-6,13-methanodipyrido[1,2-a:1′,2′-e][1,5]diazocin-2-yl 3-(4-hydroxy-3-methylphenyl)acrylate]
IC50 [1]: 32.59 ± 0.29 µM | IC50 [2]: 58.7 ± 1.78 µM | IC50 [3]: > 100 µM | in vitro antitumor activities (different cell lines): good in vitro antitumor activities | IC50 [4]: 66.9 ± 1.84 µM | IC50 [5]: > 100 µM

O=C(/C=C\c1cccc(O)c1)OC1CCN2[C@@H]3C[C@@H](C[C@@H]2C1)N1CCCC[C@@H]1C3 (stereo partly drawn) [Compound C, (Z)-(6S,7aR,13S,14aR)-tetradecahydro-6,13-methanodipyrido[1,2-a:1′,2′-e][1,5]diazocin-2-yl 3-(3-hydroxyphenyl)acrylate]
IC50 [1]: 26.3 ± 1.48 µM | IC50 [2]: 73.55 ± 0.49 µM | IC50 [3]: 43.2 ± 0.95 µM | in vitro antitumor activities (different cell lines): good in vitro antitumor activities | IC50 [4]: 5.49 ± 1.98 µM | IC50 [5]: 23.7 ± 2.37 µM

O=C(/C=C\c1ccc(Cl)cc1)OC1CCN2[C@@H]3C[C@@H](C[C@@H]2C1)N1CCCC[C@@H]1C3 (stereo partly drawn) [Compound M, (Z)-(6S,7aR,13S,14aR)-tetradecahydro-6,13-methanodipyrido[1,2-a:1′,2′-e][1,5]diazocin-2-yl 3-(4-chlorophenyl)acrylate]
IC50 [1]: 55.54 ± 0.044 µM | IC50 [2]: 26.8 ± 1.24 µM | IC50 [3]: 10.6 ± 1.33 µM | in vitro antitumor activities (different cell lines): good in vitro antitumor activities | IC50 [4]: 45.9 ± 1.82 µM | IC50 [5]: > 100 µM
